Test results from PMC8757608 (Journal of Enzyme Inhibition and Medicinal Chemistry, 2022).

Tests used:
HL60(TB) (leukemia) = test: NCI-60 single dose screen, HL60; format: cell-based; settings: Homo sapiens, HL-60, read-out: percent growth inhibition
K-562 (leukemia) = test: NCI-60 single dose screen, K-562; format: cell-based; settings: Homo sapiens, K562, read-out: percent growth inhibition

Cc1cc(=O)[nH]c(=O)n1Cc1cn(-c2c3ccccc3nc3ccccc23)nn1 [Compound 8, 1-((1-(Acridin-9-yl)-1H-1,2,3-triazol-4-yl)methyl)-6-methylpyrimidine-2,4(1H,3H)-dione]
inhibition at 10 µM (HL60(TB) (leukemia)): 92.9%
inhibition at 10 µM (K-562 (leukemia)): 83.7%
